Results on one compound are retold here after PMC12019328, “Discovery of an ApoE4-targeted small-molecule SirT1 enhancer for the treatment of Alzheimer’s disease” (Scientific Reports, 2025).

Assay [1] deals with PRMT5 mRNA in Kelly cells. Kind of assay: PRMT5 mRNA in Kelly neuroblastoma cells. Format: cell-based, human. Particulars: 5 µM, 24 h, vs DMSO. Here is the method: Human neuroblastoma ‘Kelly’ cells (genotype APOE3/APOE4) were plated in 96-well plates at 50K cells per well and were grown overnight in RPMI 1640 supplemented with 2 mM Glutamine, 10% FBS and 1% Pen-Strep. Cells were treated with 5 µM DDL-214, -218, or -219; or DMSO vehicle (n = 8 per compound). Twenty-four hours later, medium was removed, cells washed and lysed as described above for N2a-E4 cells.
(§1) Total RNA was isolated from cells or brain tissue (Qiagen RNEasy kit). Total RNA (0.5–1.0 µg) mRNA was then converted to cDNA (SuperScript™ III First-Strand Synthesis SuperMix kit; Thermo Fisher), and gene mRNA levels were measured using a gene-specific qRT-PCR Taqman assays (Thermo Fisher). Gene mRNA levels were normalized to GAPDH mRNA levels measured either in the same cDNA sample or in the same qPCR reaction using multiplexing of gene-of-interest/VIC and GAPDH/FAM, normalized by the delta-delta-Ct method.

Another assay relates to ApoE4-TR:5xFAD mice. Kind of assay: Barnes maze testing in ApoE4-TR:5xFAD mice. Format: in vivo. The note with it: 20 mg/Kg BID oral, 56 days, vs vehicle. Here is the method:
(§2) The active (-) enantiomer, DDL-218, underwent efficacy testing in ApoE4-TR:5xFAD mice[27] that were 6-7.5 months old at the start of treatment. ApoE4-TR:5xFAD male and female mice received either 20 mg/Kg DDL-218 BID (~ 8- to10-hour interval; total daily dose of 40 mkd) on weekdays and a single 40 mg/Kg dose on weekends (n = 12) or vehicle-only (n = 11); 8 C57BL/6 mice received vehicle-only as behavioral controls. Dosing was by the oral route and by oral feeding using a pipette as previously described, not gavage, as it is safer for repeated oral dosing than gavage. The dose of 20 mg/kg BID (40 mkd) was selected based on findings from PK analysis and was the highest feasible in the formulation used for oral feeding (compound is first solubilized in water, then mixed strawberry syrup diluted in water, for a final vehicle that is 25% syrup and 75% water). The final concentration of DDL-218 was chosen to deliver 20 mg/Kg in a volume of 10–20 µL (adjusted to the weight of each mouse). […]
For the probe test of memory, 48 h after the last training, the escape hole is closed and the escape box removed. […] Analysis of latency over the course of training trials was performed using ANY-Maze Software (Wood Dale, IL) and probe data was calculated manually as the software excludes mice that […] the escape hole within 90 s; in manual scoring, they are assigned a 90 s latency.

Another assay relates to PRMT5 mRNA. Description: Hippocampal PRMT5 mRNA in ApoE4-TR:5xFAD mice. Format: in vivo. The note with it: 20 mg/Kg BID, 56 days, vs vehicle. Here is the method:
as §2, with “water).” for “water). The final concentration of DDL-218 was chosen to deliver 20 mg/Kg in a volume of 10–20 µL (adjusted to the weight of each mouse).”
as §1

`CC(N)C(=O)OC(C)(C)Cc1ccncc1` (stereo not drawn) [DDL-218]: the “PRMT5 expression (mRNA)” value in assay [1] was “significantly increases PRMT5 expression”. Moreover, the “latency to enter the escape hole, 48-hour post-training probe” value in the assay on ApoE4-TR:5xFAD mice is listed as “decrease in latency”. Besides, the “hippocampal PRMT5 mRNA” value in the assay with PRMT5 mRNA was “significantly increased”.
